This is an account of results in patent US20210094919A1, “KRAS MUTANT PROTEIN INHIBITORS” (Jacobio Pharmaceuticals Co., Ltd., priority 2019, published 2021).

In this assay the target is T1, HIS-KRAS (G12C, aa 2-185) (Homo sapiens, UniProt P01116, G12C).
T1 construct: HIS-KRAS (G12C, aa 2-185, Sino biological); purchased Sino biological
The assay is described as follows: SOS1 catalyzed nucleotide exchange assay (TR-FRET). It is filed as biochemical. To be noted: GDP-loaded HIS-KRAS (G12C) pre-incubated with compound 1 hour, SOS1 ExD and BODIPY FL GTP added, 4 hours at 25° C. The protocol: HIS-KRAS (G12C, aa 2-185, Sino biological) was diluted to 5 μM in EDTA buffer (20 mM HEPES, pH 7.4, 50 mM NaCl, 10 mM EDTA, 0.01% (v/v) Tween-20) and incubated for 30 min at 25° C. The EDTA pretreated HIS-KRAS (G12C) was diluted to 12 nM in assay buffer (25 mM HEPES, pH 7.4, 120 mM NaCl, 5 mM MgCl2, 1 mM DTT, 0.01% (v/v) Tween 20, 0.1% (w/v) BSA) containing 120 nM GDP (Sigma) and MAb Anti 6HIS-Tb cryptate Gold (Cisbio) and incubated for 1 hour at 25° C. to prepare GDP-loaded HIS-KRAS (G12C). The GDP-loaded HIS-KRAS (G12C) was pre-incubation with diluted compounds in a 384-well plate (Greiner) for 1 hour, then purified SOS1 ExD (Flag tag, aa 564-1049) and BODIPY™ FL GTP (Invitrogen) were added to the assay wells (Final concentration: 3 nM HIS-KRAS (G12C), 2 μM SOS1 ExD, 80 nM BODIPY™ FL GTP, 21 ng/mL MAb Anti 6HIS-Tb cryptate Gold) and incubated for 4 hours at 25° C. TR-FRET signals were then read on Tecan Spark multimode microplate reader. The parameters were F486: Excitation 340 (35) nm, Emission 486 (10) nm, Lag time 100 las, Integration time 200 las; F515: Excitation 340 (35) nm, Emission 515 (10) nm, Lag time 100 las, Integration time 200 las. TR-FRET ratios for each individual wells were calculated by equation: TR-FRET ratio=(Signal F515/Signal F486)*10000. Then the data were analyzed using a 4-parameter logistic model to calculate IC50 values.
(In general: In TR-FRET formats the signal depends on donor and acceptor labels being close together.)

In general, IC50 refers to the concentration that inhibits the measured activity by half.

T1 sequence (P01116 2-185 isoform P01116-2 G12C): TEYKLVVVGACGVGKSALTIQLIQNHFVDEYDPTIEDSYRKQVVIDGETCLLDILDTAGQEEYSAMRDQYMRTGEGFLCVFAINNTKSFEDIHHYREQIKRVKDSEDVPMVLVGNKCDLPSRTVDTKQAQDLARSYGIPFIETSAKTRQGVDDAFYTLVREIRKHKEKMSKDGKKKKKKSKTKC

Turning to `C=CC(=O)N1CCN(c2c(C#N)c(OC[C@@H]3CCCN3C)nc3c2CCN(c2cccc4cccc(C)c24)C3)CC1CC#N` (stereo partly drawn) [Compound 1, 4-(4-acryloyl-3-(cyanomethyl)piperazin-1-yl)-7-(8-methylnaphthalen-1-yl)-2-(((S)-1-methylpyrrolidin-2-yl)methoxy)-5,6,7,8-tetrahydro-1,7-naphthyridine-3-carbonitrile], the IC50 came out at 53.1 nM.

Regarding `C=CC(=O)N1CC(Nc2c(C#N)c(OC[C@@H]3CCCN3C)nc3c2CCN(c2cccc4cccc(C)c24)C3)C1` [Compound 4, (S)-4-((1-acryloylazetidin-3-yl)amino)-7-(8-methylnaphthalen-1-yl)-2-((1-methylpyrrolidin-2-yl)methoxy)-5,6,7,8-tetrahydro-1,7-naphthyridine-3-carbonitrile], the IC50 was > 1000 nM.

Turning to `C=CC(=O)N1[C@H](C)CN(c2c(C#N)c(OC[C@@H]3CCCN3C)nc3c2CCN(c2cccc4cccc(C)c24)C3)C[C@@H]1C` [Compound 3, 4-((3S,5R)-4-acryloyl-3,5-dimethylpiperazin-1-yl)-7-(8-methylnaphthalen-1-yl)-2-(((S)-1-methylpyrrolidin-2-yl)methoxy)-5,6,7,8-tetrahydro-1,7-naphthyridine-3-carbonitrile], the IC50 is > 1000 nM.

In the case of `C=CC(=O)N1CCN(c2c(C#N)c(OC[C@@H]3CCCN3C)nc3c2CCN(c2cccc4cccc(C)c24)C3)C[C@@H]1C` [Compound 6, 4-((S)-4-acryloyl-3-methylpiperazin-1-yl)-7-(8-methylnaphthalen-1-yl)-2-(((S)-1-methylpyrrolidin-2-yl)methoxy)-5,6,7,8-tetrahydro-1,7-naphthyridine-3-carbonitrile], the IC50 is > 1000 nM.

For the compound `C=CC(=O)N1CCN(c2c(C#N)c(OC[C@@H]3CCCN3C)nc3c2CCN(c2cccc4cccc(C)c24)C3)C[C@H]1C` [Compound 5, 4-((R)-4-acryloyl-3-methylpiperazin-1-yl)-7-(8-methylnaphthalen-1-yl)-2-(((S)-1-methylpyrrolidin-2-yl)methoxy)-5,6,7,8-tetrahydro-1,7-naphthyridine-3-carbonitrile], the IC50 was > 1000 nM.

Turning to `C=CC(=O)N1CCN(c2c(C#N)c(OC[C@@H]3CCCN3C)nc3c2CCN(c2cccc4cccc(C)c24)C3)CC1` [Compound 2, (S)-4-(4-acryloylpiperazin-1-yl)-7-(8-methylnaphthalen-1-yl)-2-((1-methylpyrrolidin-2-yl)methoxy)-5,6,7,8-tetrahydro-1,7-naphthyridine-3-carbonitrile], the IC50 is > 1000 nM.
